The results in this text go back to patent publication US6552069B1, “3-methyl-chroman and -thiochroman derivatives” (Chugai Seiyaku Kabushiki Kaisha, priority 1999, dated 2003).

This experiment concerns estradiol-induced increase in uterine weight. Put plainly: Anti-estrogenic activity (oral administration) in ovariectomized mice administered with 17β-estradiol. The experiment is classed as in vivo. To be noted: 10 mg/kg p.o. once a day for 3 days, suspended in 5% arabic gum, ovariectomized ICR mice given 17β-estradiol-benzoate 0.1 μg/mouse s.c. for 3 days, uteri weighed 24 hours after last administration. As for the experimental part:
Test compounds were assayed for their oral anti-estrogenic activity in the following manner. In this experiment, the compounds prepared in Examples mentioned above were used as test compounds. As control compounds, the following three were used: a compound described in Example 7 of WO98/25916; ZM; and a compound corresponding to general formula (1) of the present invention, provided that R2 was a C2 perfluoroalkyl group (perfluoroethyl), i.e., 10-[(3RS,4RS)-7-hydroxy-3-(4-hydroxyphenyl)-3-methylthiochroman-4-yl]-2-(4,4,5,5,5-pentafluoropentyl)decanoic acid, which had been synthesized according to Reaction Schemes 1 to 7 mentioned above.
In this experiment, each of the test and control compounds was suspended in 5% arabic gum solution and orally administered for 3 days on a once-a-day basis. After 24 hours from the last administration, the test animals were sacrificed and the uteri were removed and weighed.

As for `C[C@@]1(c2ccc(O)cc2)CSc2cc(O)ccc2[C@@H]1CCCCCCCCCC(CCCC(F)(F)C(F)(F)C(F)(F)C(F)(F)F)C(=O)O` (mixture of isomers) [Example 12, 11-[(3RS,4RS)-7-hydroxy-3-(4-hydroxyphenyl)-3-methylthiochroman-4-yl]-2-(4,4,5,5,6,6,7,7,7-nonafluoroheptyl)undecanoic acid], the inhibition in vivo at 10 mg/kg is 86%. `C[C@@]1(c2ccc(O)cc2)CSc2cc(O)ccc2[C@@H]1CCCCCCCCC(CCC(F)(F)C(F)(F)C(F)(F)C(F)(F)F)C(=O)O` (single isomer, unassigned) [Example 21, Peak 1] registered an inhibition in vivo at 10 mg/kg of 89%. Turning to `C[C@@]1(c2ccc(O)cc2)CSc2cc(O)ccc2[C@@H]1CCCCCCCCCC(CCC(F)(F)C(F)(F)C(F)(F)C(F)(F)F)C(=O)O` (mixture of isomers) [Example 11, 11-[(3RS,4RS)-7-hydroxy-3-(4-hydroxyphenyl)-3-methylthiochroman-4-yl]-2-(3,3,4,4,5,5,6,6,6-nonafluorohexyl)undecanoic acid], the inhibition in vivo at 10 mg/kg was 85%.

In turn, `C[C@@]1(c2ccc(O)cc2)COc2cc(O)ccc2[C@@H]1CCCCCCCCCC(CCC(F)(F)C(F)(F)C(F)(F)C(F)(F)F)C(=O)O` (mixture of isomers) [Example 14, 11-[(3RS,4RS)-7-hydroxy-3-(4-hydroxyphenyl)-3-methylchroman-4-yl]-2-(3,3,4,4,5,5,6,6,6-nonafluorohexyl)undecanoic acid] registered an inhibition in vivo at 10 mg/kg of 88%. For the compound `C[C@@]1(c2ccc(O)cc2)COc2cc(O)ccc2[C@@H]1CCCCCCCCCC(CCCC(F)(F)C(F)(F)C(F)(F)C(F)(F)F)C(=O)O` (mixture of isomers) [Example 16, 11-[(3RS,4RS)-7-hydroxy-3-(4-hydroxyphenyl)-3-methylchroman-4-yl]-2-(4,4,5,5,6,6,7,7,7-nonafluoroheptyl)undecanoic acid], the inhibition in vivo at 10 mg/kg was 91%. `C[C@@]1(c2ccc(O)cc2)CSc2cc(O)ccc2[C@@H]1CCCCCCCCC(CCCC(F)(F)C(F)(F)C(F)(F)C(F)(F)F)C(=O)O` (mixture of isomers) [Example 9, 10-[(3RS,4RS)-7-hydroxy-3-(4-hydroxyphenyl)-3-methylthiochroman-4-yl]-2-(4,4,5,5,6,6,7,7,7-nonafluoroheptyl)decanoic acid] gave an inhibition in vivo at 10 mg/kg of 93%.

On to `C[C@@]1(c2ccc(O)cc2)COc2cc(O)ccc2[C@@H]1CCCCCCCCC(CCCC(F)(F)C(F)(F)C(F)(F)C(F)(F)F)C(=O)O` (mixture of isomers) [Example 15, 10-[(3RS,4RS)-7-hydroxy-3-(4-hydroxyphenyl)-3-methylchroman-4-yl]-2-(4,4,5,5,6,6,7,7,7-nonafluoroheptyl)decanoic acid], for which at 10 mg/kg the inhibition in vivo was 92%. In turn, `C[C@@]1(c2ccc(O)cc2)CSc2cc(O)ccc2[C@@H]1CCCCCCCCC(CCC(F)(F)C(F)(F)C(F)(F)C(F)(F)F)C(=O)O` (mixture of isomers) [Example 8, 10-[(3RS,4RS)-7-hydroxy-3-(4-hydroxyphenyl)-3-methylthiochroman-4-yl]-2-(3,3,4,4,5,5,6,6,6-nonafluorohexyl)decanoic acid] displayed an inhibition in vivo at 10 mg/kg of 93%.

On to `C[C@@]1(c2ccc(O)cc2)COc2cc(O)ccc2[C@@H]1CCCCCCCCC(CCC(F)(F)C(F)(F)C(F)(F)C(F)(F)F)C(=O)O` (mixture of isomers) [Example 13, 10-[(3RS,4RS)-7-hydroxy-3-(4-hydroxyphenyl)-3-methylchroman-4-yl]-2-(3,3,4,4,5,5,6,6,6-nonafluorohexyl)decanoic acid], for which the inhibition in vivo at 10 mg/kg is 84%. With `C[C@@]1(c2ccc(O)cc2)CSc2cc(O)ccc2[C@@H]1CCCCCCCCC(CCCC(F)(F)C(F)(F)F)C(=O)O` (mixture of isomers) [10-[(3RS,4RS)-7-hydroxy-3-(4-hydroxyphenyl)-3-methylthiochroman-4-yl]-2-(4,4,5,5,5-pentafluoropentyl)decanoic acid, reference compound], the inhibition in vivo at 10 mg/kg was determined as 75%. Turning to `CC1(c2ccc(O)cc2)COc2cc(O)ccc2C1CCCCCCCCCC(CCC(F)(F)C(F)(F)C(F)(F)C(F)(F)F)C(=O)O` (single isomer, unassigned) [Example 24, Peak 1, 11-[7-hydroxy-3-(4-hydroxyphenyl)-3-methylchroman-4-yl]-2-(3,3,4,4,5,5,6,6,6-nonafluorohexyl)undecanoic acid], the inhibition in vivo at 10 mg/kg was found to be 85%.

By inhibition in vivo is commonly meant how much of the control response was suppressed. A higher inhibition in vivo goes with a response far below the control.
